For six molecules, ED50 and MIC results are on record in patent publication EP0051773A1, “Penicillins, their salts, process for their preparation and pharmaceutical compositions containing them” (Dr. Karl Thomae GmbH, priority 1980, dated 1982).

The test system of experiment [1] is E.coli ATCC 11 775. Description: experimental intraperitoneal infection in mice, ED50 (survival). In kind it is in vivo, Mäuse. The conditions noted are these: Escherichia coli, ATCC 11 / ATCC 1175, sc, 168 h; female NMRI mice, i.p. infection, s.c. application, treated once, 7 days observation. Here is the method: Eine Reihe der erfindungsgemäßen Verbindungen wurde in vivo bei experimentellen Infektionen an Mäusen untersucht. Man verwendete als pathogene Bakterien E.coli ATCC 11 775 und Pseudomonas aeruginosa Walter. Es wurde eine intraperitoneale Infektion mit 0,2 ml einer 5%igen Mucinsuspension der Bakterien gesetzt. Dies entspricht etwa 2x10^6 Keime E.coli bzw. 8x10^5 Keime Pseudomonas/Maus. Weibliche Mäuse vom Stamm NMRI wurden in Gruppen von jeweils 10 Tieren aufgeteilt, zwei Gruppen blieben unbehandelt, die restlichen Gruppen wurden mit verschiedenen Dosen der jeweiligen erfindungsgemäßen Penicilline zur Bestimmung der ED50 (Dosis, bei der 50 % der Tiere überleben) behandelt. Bei der E.coli-Infektion wurde einmal therapiert. Bei der Pseudomonas-Infektion wurde dreimal behandelt.
Der Beobachtungszeitraum betrug in beiden Fällen 7 Tage. Die Ergebnisse dieser Teste mit repräsentativen Vertretern der erfindungsgemäßen Penicilline sind in der Tabelle 3 dargestellt.

Experiment [2] relates to Proteus mirabilis Hamburgensis. Description: serial dilution test in microtiter system (bacteriostasis, MIC). In kind it is cell-based. The conditions noted are these: liquid medium, 18 to 20 h at 37°C, read-out: MHK-Werte Prot. mir. Hbg. How it is done:
(§1) Für die Untersuchungen wurde die Methode des Reihenverdünnungstestes im Mikrotitersystem angewandt. Die Prüfung der Substanzen auf Bakteriostase erfolgte in flüssigem Medium. Es wurde die Bakteriostasewirkung bei folgenden Konzentrationen untersucht.
(§2) Es wurde ein Nährboden folgender Zusammensetzung benutzt: 10 g Pepton, 8 g Fleischextrakt-Oxoid, 3 g Natriumschlorid, 2 g sek. Natriumphosphat werden mit dest. Wasser auf 1000 ml aufgefüllt (pH 7,2-7,4). Lediglich bei der Testung gegen Streptokokken wurde 1% Glucose hinzugefügt. Das Alter der Primärkulturen betrug etwa 20 Stunden. Die Einstellung der Keimsuspension erfolgte am Photometer (nach "Eppendorf") (Reagenzglas-Durchmesser 14 mm, Filter 546 nm) anhand der Trübung einer Bariumsulfat-Vergleichssuspension, die durch eine Bariumsulfat-Aufschwemmung erzeugt wurde, welche durch die Zugabe von 3,0 ml 1%ige Bariumchloridlösung in 97 ml 1%ige Schwefelsäure entstand. Nach der Einstellung wurden Streptococcus Aronson im Verhältnis 1:15 und die übrigen Testkeime im Verhältnis 1:1500 mit einer Kochsalzlösung weiter verdünnt.
(§3) 16 mg der jeweiligen Substanz wurden in 10 ml-Meßkolben eingewogen und mit dem Lösungsmittel bis zur Marke aufgefüllt. Die weitere Verdünnungsreihe wurde mit destilliertem Wasser oder dem jeweiligen Lösungsmittel hergestellt.
(§4) Die Vertiefungen der Mikrotiterplatten wurden mit 0,2 ml Nährmedium, 0,01 ml der entsprechenden Substanzverdünnung und mit einem Tropfen Keimsuspension (0,01 ml) beschickt und 18 bis 20 Stunden bei 37°C bebrütet. Eine Lösungsmittelkontrolle wurde stets mitgeführt.
(§5) Die Ablesung wurde makroskopisch vorgenommen, wobei die jeweilige Grenkonzentration (= niedrigste noch bakteriostatisch wirksame Konzentration) ermittelt wurde.
(§6) Als Testorganismen wurden benützt: - Staphylococcus aureus SG 511, Escherichia coli ATCC 11 775, Pseudomonas aeruginosa Hamburgensis und Walter, Serratia marcescens ATCC 13 880, Klebsiella pneumoniae ATCC 10 031 und BC 6, Proteus mirabilis Hamburgensis, Proteus rettgeri BC 7 und Enterobacter cloacae ATCC 13 047.
(§7) In der folgenden Tabelle 2 sind die ermittelten minimalen Hemmkonzentrationen (MIC) für typische Vertreter der erfindungsgemäßen Verbindungen aufgeführt, wobei sich die Ziffern auf die Penicilline der Tabelle 1 Seite 18 beziehen.

Experiment [3] concerns Klebsiella pneumoniae ATCC 10 031. Described as above. In kind it is cell-based. The conditions noted are these: ATCC10, liquid medium, 18 to 20 h at 37°C, read-out: MHK-Werte Kl. pneum. ATCC 10 031. Here is the method:
as §1, §2, §3, §4, §5, §6, §7

Experiment [4] has as its system Pseudomonas aeruginosa Walter. The experiment is described as above. In kind it is cell-based. The conditions noted are these: liquid medium, 18 to 20 h at 37°C, read-out: MHK-Werte Pseud. aerug. Walter. Here is the method:
as §1, §2, §3, §4, §5, §6, §7

The test system of experiment [5] is Escherichia coli ATCC 11 775. The description is as above. In kind it is cell-based. The conditions noted are these: ATCC11, liquid medium, 18 to 20 h at 37°C, read-out: MHK-Werte E.coli ATCC 11 755. How it is done:
as §1, §2, §3, §4, §5, §6, §7

In experiment [6] the test system is Klebsiella pneumoniae BC 6. Described as above. In kind it is cell-based. The conditions noted are these: BC6, liquid medium, 18 to 20 h at 37°C, read-out: MHK-Werte Kl. pneum. BC 6. How it is done: as §1, §2, §3, §4, §5, §6, §7
Experiment [7] concerns Enterobacter cloacae ATCC 13 047. The description is as above. In kind it is cell-based. The conditions noted are these: ATCC13, liquid medium, 18 to 20 h at 37°C, read-out: MHK-Werte Eb. cloacae 13 047. How it is done:
as §1, §2, §3, §4, §5, §6, §7

Experiment [8] relates to Pseudomonas aeruginosa Hamburgensis. The experiment is described as above. The conditions noted are these: liquid medium, 18 to 20 h at 37°C, read-out: MHK-Werte Pseud. aerug. Hbg. In kind it is cell-based. How it is done: as §1, §2, §3, §4, §5, §6, §7
Experiment [9] concerns Serratia marcescens ATCC 13 880. The experiment is described as above. The conditions noted are these: ATCC13, liquid medium, 18 to 20 h at 37°C, read-out: MHK-Werte Serr. marcesc. ATCC 13 880. In kind it is cell-based. How it is done:
as §1, §2, §3, §4, §5, §6, §7

The subject of experiment [10] is Staphylococcus aureus SG 511. Described as above. In kind it is cell-based. The conditions noted are these: SG511, liquid medium, 18 to 20 h at 37°C, read-out: MHK-Werte Staph. aureus SG 511. Here is the method: as §1, §2, §3, §4, §5, §6, §7
Experiment [11] deals with Proteus rettgeri BC 7. The experiment is described as above. In kind it is cell-based. The conditions noted are these: Providencia rettgeri, BC7; liquid medium, 18 to 20 h at 37°C; read-out: MHK-Werte Prot. rettg. BC 7. Here is the method: as §1, §2, §3, §4, §5, §6, §7

≈ marks a conversion by molar mass, not a printed value. Some results are limits rather than exact numbers.

Consider `CC1(C)S[C@@H]2[C@H](NC(=O)[C@H](NC(=O)N3CCN(S(C)(=O)=O)C3=O)c3ccccc3)C(=O)N2[C@H]1C(=O)O` [B, Mezlocillin, reference compound], for which the ED50 in [1] was over 100 mg/kg. Also, the MIC in experiment [2] stood at 0.25 µg/mL (≈ 0.463 µM); in experiment [3], 4 µg/mL (≈ 7.41 µM); in [4], 32 µg/mL (≈ 59.3 µM); in [5], 2 µg/mL (≈ 3.71 µM); in experiment [6] it was 4 µg/mL (≈ 7.41 µM); in [7], 4 µg/mL (≈ 7.41 µM). The MIC in [8] was 16 µg/mL (≈ 29.7 µM); in experiment [9] it was 0.5 µg/mL (≈ 0.927 µM); in experiment [10], 0.25 µg/mL (≈ 0.463 µM); in [11], 1 µg/mL (≈ 1.85 µM).
The molecule `CC1(C)S[C@@H]2[C@H](NC(=O)[C@H](NC(=O)Nc3cnc(Nc4ccc(S(N)(=O)=O)cc4)nc3O)c3ccc(O)c(Cl)c3)C(=O)N2[C@H]1C(=O)O` [Verbindung 4] gave an ED50 in [1] of 6.1 mg/kg. The MIC came out at 0.25 µg/mL (≈ 0.354 µM) in experiment [2]; 2 µg/mL (≈ 2.83 µM) in [3]; 1 µg/mL (≈ 1.41 µM) in experiment [4]; 0.25 µg/mL (≈ 0.354 µM) in experiment [5]; 2 µg/mL (≈ 2.83 µM) in [6]; 1 µg/mL (≈ 1.41 µM) in [7]. Also, the MIC in experiment [8] was 2 µg/mL (≈ 2.83 µM); in experiment [9], 0.25 µg/mL (≈ 0.354 µM); in [10], 0.25 µg/mL (≈ 0.354 µM); in experiment [11], 0.5 µg/mL (≈ 0.707 µM).
With `CC1(C)S[C@@H]2[C@H](NC(=O)[C@H](NC(=O)Nc3cnc(Nc4ccc(S(N)(=O)=O)cc4)nc3O)C3=CCC=CC3)C(=O)N2[C@H]1C(=O)O` [Verbindung 12], the 50% effective dose (ED50) in experiment [1] came out at 5 mg/kg.
On the same count and under the same terms, next, `CCCCNS(=O)(=O)c1ccc(Nc2ncc(NC(=O)N[C@@H](C(=O)N[C@@H]3C(=O)N4[C@@H]3SC(C)(C)[C@@H]4C(=O)O)c3ccc(O)cc3)c(O)n2)cc1` [Verbindung 20]: 6.6 mg/kg.
Take `CCCCS(=O)(=O)c1ccc(Nc2ncc(NC(=O)NC(C(=O)NC3C(=O)N4C3SC(C)(C)C4C(=O)O)c3ccc(O)cc3)c(O)n2)cc1` (stereo not drawn) [Verbindung 32]: the MIC in [2] worked out at 0.06 µg/mL (≈ 0.0841 µM); in [3] it was 1 µg/mL (≈ 1.4 µM); in experiment [4] it was 1 µg/mL (≈ 1.4 µM); in [5], 0.12 µg/mL (≈ 0.168 µM); in [6], 0.5 µg/mL (≈ 0.7 µM); in [7], 1 µg/mL (≈ 1.4 µM). In addition, the MIC in [8] stood at 2 µg/mL (≈ 2.8 µM); in [9], 0.12 µg/mL (≈ 0.168 µM); in experiment [10] it was 0.12 µg/mL (≈ 0.168 µM); in experiment [11] it was 0.25 µg/mL (≈ 0.35 µM).
In turn, `CC1(C)SC2C(NC(=O)C(NC(=O)Nc3cnc(Nc4ccc(C(N)=O)cc4)nc3O)c3ccccc3)C(=O)N2C1C(=O)O` (stereo not drawn) [Verbindung 34] returned an ED50 in [1] of 3.2 mg/kg. Further, the MIC was 0.06 µg/mL (≈ 0.0967 µM) in [2]; 4 µg/mL (≈ 6.44 µM) in experiment [3]; 2 µg/mL (≈ 3.22 µM) in [4]; 0.25 µg/mL (≈ 0.403 µM) in experiment [5]; 2 µg/mL (≈ 3.22 µM) in [6]; 2 µg/mL (≈ 3.22 µM) in [7]. The MIC in experiment [8] stood at 1 µg/mL (≈ 1.61 µM); in experiment [9], 0.25 µg/mL (≈ 0.403 µM); in experiment [10] it was 0.25 µg/mL (≈ 0.403 µM); in experiment [11] it was 0.25 µg/mL (≈ 0.403 µM).

The term ED50 denotes the dose at which the effect has come halfway, by size or by number of responders.
